Experimental data taken from patent publication US7339039B2, “Nucleic acids encoding receptor recognition factors, and methods of use thereof” (The Rockfeller University, priority 1992, dated 2008).
Square brackets hold non-standard residues; d marks the D form. Ends that are not written are not given here. pY = N[C@@H](Cc1ccc(OP(=O)(O)O)cc1)C(=O)O

What was measured:
Stat91-DNA complex = target: T1, Stat91-DNA complex (Homo sapiens, UniProt P42224); assay: Formation of Stat91-DNA complex in the presence of phosphoamino acids; assay type: biochemical; details: 10 mM
T1 sequence (P42224 1-750): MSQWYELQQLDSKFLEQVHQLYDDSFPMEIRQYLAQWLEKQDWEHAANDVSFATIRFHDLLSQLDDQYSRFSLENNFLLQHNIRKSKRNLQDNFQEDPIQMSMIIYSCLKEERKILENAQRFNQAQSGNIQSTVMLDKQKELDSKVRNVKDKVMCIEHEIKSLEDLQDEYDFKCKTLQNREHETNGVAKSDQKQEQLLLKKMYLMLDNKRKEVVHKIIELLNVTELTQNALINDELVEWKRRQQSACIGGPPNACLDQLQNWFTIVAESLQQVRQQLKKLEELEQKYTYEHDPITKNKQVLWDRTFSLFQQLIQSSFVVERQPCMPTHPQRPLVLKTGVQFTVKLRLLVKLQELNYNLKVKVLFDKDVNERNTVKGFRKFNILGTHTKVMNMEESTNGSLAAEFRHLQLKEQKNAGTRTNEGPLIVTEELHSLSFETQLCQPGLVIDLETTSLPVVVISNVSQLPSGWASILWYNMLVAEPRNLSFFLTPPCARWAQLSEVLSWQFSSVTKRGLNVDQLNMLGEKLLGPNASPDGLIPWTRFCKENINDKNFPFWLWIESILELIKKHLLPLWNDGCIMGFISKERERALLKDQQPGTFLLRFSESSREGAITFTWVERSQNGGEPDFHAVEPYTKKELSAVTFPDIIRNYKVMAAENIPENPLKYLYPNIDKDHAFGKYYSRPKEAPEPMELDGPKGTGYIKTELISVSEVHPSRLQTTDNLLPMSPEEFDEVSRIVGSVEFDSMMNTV
Procedure: (§1) Gel Mobility Shift Assays. Gel mobility shift assays were carried out as described (34). An oligonucleotide corresponding to the GAS element from the human FcγRI receptor gene (Pearse et al. 1993) was synthesized and used for gel mobility shift assays. The oligonucleotide has the following sequence: 5′[…]3′ (SEQ. ID NO:17).
The Stat91 sequence contains an SH2 domain (amino acids 569 to 700, see discussion below), and we knew that Tyr-701 was the single phosphorylated tyrosine residue required for DNA binding activity (supra, 45). […] We therefore sought evidence that the dimerization of Stat91 involved specific SH2-phosphotyrosine interaction using the dissociation and reassociation assay.

[1] = tested on: ISGF-3 formation / IFN-α induced transcription; details: cited from earlier work
[2] = tested on: Stat84 and Stat91L homodimers; assay: Dissociation-reassociation analysis (gel mobility shift with GAS probe); assay type: biochemical, human; details: for dissociation of the dimers and block of formation of DNA protein complexes: peptide 160 μM
Procedure: as §1
Dissociation-reassociation Analysis. Extracts were incubated with various concentrations of peptides or fusion proteins, and ^32P-labeled GAS oligonucleotide probe in gel shift buffer was then added to promote the formation of protein-DNA complex followed by mobility shift analysis.
Dimerization of Stat91 Involves Phosphoryrosyl Peptide and SH2 Interactions. Based on the results described above, we devised a dissociation-reassociation assay in the absence of guanidium hydrochloride to explore the possible nature of interactions involved in dimer formation (FIG. 20). When the short and the long forms of a homodimer are mixed with a dissociating agent (e.g., a peptide containing the putative dimerization domain), the subunits of the dimer should dissociate (in a concentration dependent fashion) due to the interaction of the agent with the dimerization domain(s) of the protein. When a specific DNA probe is subsequently added to the mixture to drive the formation of a stable protein-DNA complex, the detection of any reassociated or remaining dimers can be assayed. In the presence of low concentration of the dissociating agent, addition of DNA to form the stable protein-DNA complex should lead to the detection of homodimers as well as heterodimers. At high concentration of the dissociating agent, subunits of the dimer may not be able to re-form and no DNA-protein complexes would be detected (FIG. 20).

In the case of `N[C@@H](COP(=O)(O)O)C(=O)O` [phosphoserine], the “prevention of formation of Stat91-DNA complex” value (Stat91-DNA complex) is reported as “not”.
In the case of `C[C@@H](OP(=O)(O)O)[C@H](N)C(=O)O` [phosphothreonine], the “prevention of formation of Stat91-DNA complex” value (Stat91-DNA complex) is reported as “not”.
With `N[C@@H](Cc1ccc(OP(=O)(O)O)cc1)C(=O)O` [phosphotyrosine] the “prevention of formation of Stat91-DNA complex” value (Stat91-DNA complex) was “could prevent the formation”.
In the case of `CN[C@@H]1C[C@H]2O[C@@](C)([C@@H]1OC)n1c3ccccc3c3c4c(c5c6ccccc6n2c5c31)C(=O)NC4` [staurosporine], the “IFN-α induction of ISGF-3 formation” value [1] is given as “blocks” and the “IFN-α induction of transcription” value [1] is given as “blocks”.
In the case of “EPQY*EEIPIYL (EPQ[pY]EEIPIYL) [SrcY-p, reference compound]”, the “effect on Stat91 dimer formation” value ([2]; FIG. 21 lanes 11-13 (4, 40, 160 μM)) is reported as “no effect”.
For GY*IKTE (G[pY]IKTE) [91Y-p], the “exchange between the subunits of Stat84 dimers and Stat91L dimers to form heterodimers” value ([2]; peptide 4 μM, extracts of IFN-γ-treated C84 and C91L cells) was “clearly promoted the exchange” and the “dissociation of the dimers and block of formation of DNA protein complexes” value [2] was “dissociated the dimers and blocked the formation of DNA protein complexes”.
For “KVNLQERRKY*LKHR (KVNLQERRK[pY]LKHR) [113Y-p]”, the “exchange of subunits between Stat84 and Stat91L” value ([2]; at concentrations similar to 91Y-p) was “promoted the exchange of subunits” and the “prevention of the gel shift bands” value ([2]; peptide 40 μM) was “prevented the gel shift bands almost completely”.
For LDGPKGTGYIKTELI [91Y], the “dissociation of the dimers and block of formation of DNA protein complexes” value [2] was “not” and the “effect on the two gel shift bands characteristic of Stat84 or Stat91L homodimers” value ([2]; various concentrations of peptide (4, 40, 160 μM)) was “no effect”.
